Data: US10087148B2, “Quinazolines as biogenic amine transport modulators” (THE UNITED STATES OF AMERICA AS REPRESENTED BY THE …, priority 2014, dated 2018)

What follows are molecules tested against T1, dopamine transporter (DAT) (Rattus norvegicus (Rat), UniProt P23977) (assay: [3H]dopamine (DA) uptake inhibition in rat brain (caudate) synaptosomes). Conditions: mean ± S.D.; n = 3; read-out: DAT Uptake Emax.
Assay type: biochemical

T1 sequence (P23977 whole entry): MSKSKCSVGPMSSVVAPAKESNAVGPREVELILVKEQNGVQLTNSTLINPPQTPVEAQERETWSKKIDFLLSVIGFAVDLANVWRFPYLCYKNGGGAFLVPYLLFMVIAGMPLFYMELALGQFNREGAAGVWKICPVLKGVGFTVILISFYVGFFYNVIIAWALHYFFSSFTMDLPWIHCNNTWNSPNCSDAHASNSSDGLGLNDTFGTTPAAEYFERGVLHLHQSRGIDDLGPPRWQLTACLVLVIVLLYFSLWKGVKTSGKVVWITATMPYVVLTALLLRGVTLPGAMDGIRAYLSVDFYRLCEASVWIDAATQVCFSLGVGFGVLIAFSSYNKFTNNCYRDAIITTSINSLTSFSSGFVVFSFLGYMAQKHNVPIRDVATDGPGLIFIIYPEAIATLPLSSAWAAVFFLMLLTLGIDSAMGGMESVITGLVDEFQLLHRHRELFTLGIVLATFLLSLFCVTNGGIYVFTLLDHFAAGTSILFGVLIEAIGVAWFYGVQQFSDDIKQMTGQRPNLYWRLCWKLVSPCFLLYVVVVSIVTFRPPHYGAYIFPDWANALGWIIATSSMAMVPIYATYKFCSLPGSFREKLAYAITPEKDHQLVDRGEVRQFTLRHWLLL

First: CN(C)c1ccc(-c2nc(NCC(c3ccccc3)c3ccccc3)c3ccccc3n2)cc1 [Compound 51, 2-(4-(dimethylamino)phenyl)-N-(2,2-diphenylethyl)quinazolin-4-amine]
Second: CN(C)c1ccc(-c2nc(NCC(c3ccccc3)c3ccccc3)c3ccccc3n2)cn1 [SRI-29779]
The Emax of the first is higher: 70 ± 3% for the first, 63 ± 3% for the second.

Going from `CN(C)c1ncc(-c2nc(NCC(c3ccccc3)c3ccccc3)c3ccccc3n2)cn1` [SRI-29153] to `c1ccc(C(CNc2nc(-c3cnc4nccn4c3)nc3ccccc23)c2ccccc2)cc1` [SRI-29991], the Emax falls from 73 ± 1% to 68 ± 1%.

For `c1ccc(C(CNc2nc(-c3ccc4[nH]ccc4c3)nc3ccccc23)c2ccccc2)cc1` [SRI-29155], the Emax was 74 ± 1%.

Same assay, conditions: values in Table 9; read-out: Emax for DAT Uptake Inhibition

First: CN(C)c1ccc(-c2nc(NCC(c3ccccc3)c3ccccc3)c3ccccc3n2)cc1 [Compound 51, 2-(4-(dimethylamino)phenyl)-N-(2,2-diphenylethyl)quinazolin-4-amine]
Second: CN(C)c1ccc(-c2nc(NCC(c3ccccc3)c3ccccc3)c3ccccc3n2)cn1 [SRI-29779]
The Emax of the first is higher: 70% for the first, 63% for the second.

First: CN(C)c1ncc(-c2nc(NCC(c3ccccc3)c3ccccc3)c3ccccc3n2)cn1 [SRI-29153]
Second: c1ccc(C(CNc2nc(-c3cnc4nccn4c3)nc3ccccc23)c2ccccc2)cc1 [SRI-29991]
The Emax of the first is higher: 73% for the first, 68% for the second.

For `c1ccc(C(CNc2nc(-c3ccc4[nH]ccc4c3)nc3ccccc23)c2ccccc2)cc1` [SRI-29155], the Emax was 74%.

These molecules were tested against T1, dopamine transporter (DAT) (assay: Dopamine transporter-mediated [3H]MPP+ release (d-amphetamine-induced, shift experiments) in rat caudate synaptosomes). Conditions: [3H]MPP+ release; [Blocker]/((EC50-2/EC50-1) − 1).
Assay type: biochemical

Going from `CN(C)c1ncc(-c2nc(NCC(c3ccccc3)c3ccccc3)c3ccccc3n2)cn1` [SRI-29153] to `CN(C)c1ccc(-c2nc(NCC(c3ccccc3)c3ccccc3)c3ccccc3n2)cn1` [SRI-29779], the “Apparent Kc” value falls from 1820 nM to 912 nM (2-fold).

Going from `c1ccc(C(CNc2nc(-c3ccc4[nH]ccc4c3)nc3ccccc23)c2ccccc2)cc1` [SRI-29155] to `c1ccc(C(CNc2nc(-c3cnc4nccn4c3)nc3ccccc23)c2ccccc2)cc1` [SRI-29991], the “Apparent Kc” value falls from 456 nM to -1070 nM.

Same assay, conditions: read-out: d-Amphetamine Emax in presence of blocker; [3H]MPP+ release; blocker concentration per row; mean ± S.D.; n = 3

`CN(C)c1ccc(-c2nc(NCC(c3ccccc3)c3ccccc3)c3ccccc3n2)cc1` [Compound 51, 2-(4-(dimethylamino)phenyl)-N-(2,2-diphenylethyl)quinazolin-4-amine] and `CN(C)c1ccc(-c2nc(NCC(c3ccccc3)c3ccccc3)c3ccccc3n2)cn1` [SRI-29779] are within error of each other in Emax: 101 ± 2% for the first, 99 ± 2% for the second.

`CN(C)c1ncc(-c2nc(NCC(c3ccccc3)c3ccccc3)c3ccccc3n2)cn1` [SRI-29153] and `c1ccc(C(CNc2nc(-c3cnc4nccn4c3)nc3ccccc23)c2ccccc2)cc1` [SRI-29991] are within error of each other in Emax: 101 ± 3% for the first, 102 ± 2% for the second.

In the case of `c1ccc(C(CNc2nc(-c3ccc4[nH]ccc4c3)nc3ccccc23)c2ccccc2)cc1` [SRI-29155], the Emax is reported as 94 ± 2%.

What follows are molecules tested against DAT (Rattus norvegicus (Rat), UniProt P23977) (assay: Inhibition of [3H]WIN35428 binding to rat caudate DAT). Conditions: [3H]WIN35428; mean ± S.D.; n = 3.
Sequence of DAT (P23977 whole entry): as above
Description: All of the test compounds were synthesized as described herein. […] The data from three experiments were pooled and fit to a dose-response curve equation (using KaleidaGraph; Synergy Software, Reading, Pa.) to yield an Emax and IC50 value. […] Selected compounds were also tested for their ability to inhibit [^3H]WIN35428 binding to rat caudate DAT.

Compared with `CN(C)c1ccc(-c2nc(NCC(c3ccccc3)c3ccccc3)c3ccccc3n2)cc1` [Compound 51, 2-(4-(dimethylamino)phenyl)-N-(2,2-diphenylethyl)quinazolin-4-amine], `CN(C)c1ccc(-c2nc(NCC(c3ccccc3)c3ccccc3)c3ccccc3n2)cn1` [SRI-29779] is lower in Emax: 100 ± 3% for the first, 83 ± 3% for the second.

Compared with `CN(C)c1ncc(-c2nc(NCC(c3ccccc3)c3ccccc3)c3ccccc3n2)cn1` [SRI-29153], `c1ccc(C(CNc2nc(-c3cnc4nccn4c3)nc3ccccc23)c2ccccc2)cc1` [SRI-29991] is lower in Emax: 76 ± 2% for the first, 18 ± 4% for the second.

With `c1ccc(C(CNc2nc(-c3ccc4[nH]ccc4c3)nc3ccccc23)c2ccccc2)cc1` [SRI-29155] the Emax was 87 ± 4%.

Same assay, conditions: [3H]WIN35428; mean ± S.D.; n = 3; unit as printed in head (text gives 1100 nM where table prints 1.1)

`CN(C)c1ncc(-c2nc(NCC(c3ccccc3)c3ccccc3)c3ccccc3n2)cn1` [SRI-29153] and `CN(C)c1ccc(-c2nc(NCC(c3ccccc3)c3ccccc3)c3ccccc3n2)cn1` [SRI-29779] are within 1.5-fold of each other in IC50: 1700 ± 200 nM for the first, 1200 ± 200 nM for the second.

`c1ccc(C(CNc2nc(-c3ccc4[nH]ccc4c3)nc3ccccc23)c2ccccc2)cc1` [SRI-29155] and `c1ccc(C(CNc2nc(-c3cnc4nccn4c3)nc3ccccc23)c2ccccc2)cc1` [SRI-29991] are within error of each other in IC50: 900 ± 200 nM for the first, 1220 ± 1120 nM for the second.

Same assay, conditions: binding IC50 / uptake IC50

In the case of `CN(C)c1ccc(-c2nc(NCC(c3ccccc3)c3ccccc3)c3ccccc3n2)cc1` [Compound 51, 2-(4-(dimethylamino)phenyl)-N-(2,2-diphenylethyl)quinazolin-4-amine], the “DAT binding IC50 weaker than IC50 for inhibition of DAT uptake” value is reported as 155 fold.

Each molecule was assayed against serotonin transporter (SERT) (Rattus norvegicus (Rat), UniProt P31652) (assay: [3H]serotonin (5-HT) uptake inhibition in rat brain synaptosomes). Conditions: mean ± S.D.; n = 3; read-out: SERT Uptake Emax.
Sequence of serotonin transporter (SERT) (P31652 whole entry): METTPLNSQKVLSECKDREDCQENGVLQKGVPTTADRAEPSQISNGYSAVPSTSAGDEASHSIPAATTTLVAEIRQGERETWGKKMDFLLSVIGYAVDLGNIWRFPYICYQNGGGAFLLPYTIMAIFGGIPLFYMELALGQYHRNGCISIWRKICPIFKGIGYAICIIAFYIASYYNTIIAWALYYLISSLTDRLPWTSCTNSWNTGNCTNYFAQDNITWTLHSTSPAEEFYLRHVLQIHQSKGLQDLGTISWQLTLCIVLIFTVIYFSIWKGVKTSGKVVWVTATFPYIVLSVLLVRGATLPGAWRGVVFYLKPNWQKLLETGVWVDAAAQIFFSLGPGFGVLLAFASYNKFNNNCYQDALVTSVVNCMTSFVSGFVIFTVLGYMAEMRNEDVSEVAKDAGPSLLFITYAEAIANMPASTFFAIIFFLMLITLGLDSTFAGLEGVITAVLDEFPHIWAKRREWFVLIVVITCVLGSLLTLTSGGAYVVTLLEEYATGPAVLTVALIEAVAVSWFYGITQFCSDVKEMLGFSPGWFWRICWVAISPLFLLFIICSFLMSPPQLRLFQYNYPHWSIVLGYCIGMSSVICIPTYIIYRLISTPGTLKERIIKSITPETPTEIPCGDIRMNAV
Assay type: biochemical
Description: Uptake inhibition assay for the serotonin transporter was conducted in rat brain synaptosomes as described elsewhere with minor modifications (Rothman et al., Synapse 39, 32-41 (2001)). Freshly removed whole brain minus cerebellum and caudate was homogenized in 10% ice-cold sucrose with 12 strokes of a hand-held Potter-Elvehjem homogenizer followed by centrifugation at 1000×g for 10 min. The supernatants were saved on ice and used immediately. Transporter activity at SERT was assessed using 5 nM [^3H]serotonin. The assay buffer was Krebs-phosphate buffer containing 154.4 mM NaCl, 2.9 mM KCl, 1.1 mM CaCl2, 0.83 mM MgCl2, 5 mM glucose, 1 mg/mL ascorbic acid, and 50 μM pargyline. […] Uptake inhibition assays were conducted at 25° C. and were initiated by adding 100 μL of tissue to 900 μL assay buffer containing test drug and [^3H]serotonin. Test drugs were diluted in assay buffer containing 1 mg/mL bovine serum albumin. Nonspecific uptake was measured by incubating in the presence of 10 μM indatraline. The reactions were stopped after 30 min by rapid vacuum filtration with a cell harvester (BRANDEL) over GF/B filters (Whatman) presoaked in wash buffer maintained at 25° C. (10 mM Tris-HCl, pH 7.4/150 mM NaCl). Filters were rinsed with 6 mL wash buffer and retained tritium was quantified by a MicroBeta liquid scintillation counter (PerkinElmer) after overnight extraction in 0.6 mL of liquid scintillation cocktail (Cytoscint, ICN). The data from three experiments were pooled and fit to a dose-response curve equation (using Kaleidagraph), to yield an Emax and EC50 value.

First: CN(C)c1ccc(-c2nc(NCC(c3ccccc3)c3ccccc3)c3ccccc3n2)cc1 [Compound 51, 2-(4-(dimethylamino)phenyl)-N-(2,2-diphenylethyl)quinazolin-4-amine]
Second: CN(C)c1ccc(-c2nc(NCC(c3ccccc3)c3ccccc3)c3ccccc3n2)cn1 [SRI-29779]
The Emax of the first is lower: 44 ± 4% for the first, 51 ± 2% for the second.

`CN(C)c1ncc(-c2nc(NCC(c3ccccc3)c3ccccc3)c3ccccc3n2)cn1` [SRI-29153] and `c1ccc(C(CNc2nc(-c3cnc4nccn4c3)nc3ccccc23)c2ccccc2)cc1` [SRI-29991] are within error of each other in Emax: 55 ± 5% for the first, 51 ± 1% for the second.

`c1ccc(C(CNc2nc(-c3ccc4[nH]ccc4c3)nc3ccccc23)c2ccccc2)cc1` [SRI-29155] gave an Emax of 54 ± 2%.

What follows are molecules tested against norepinephrine transporter (NET) (Rattus norvegicus, UniProt Q63380) (assay: [3H]norepinephrine (NE) uptake inhibition in rat brain synaptosomes). Conditions: read-out: NET Uptake Emax.
Sequence of norepinephrine transporter (NET) (Q63380 1-617): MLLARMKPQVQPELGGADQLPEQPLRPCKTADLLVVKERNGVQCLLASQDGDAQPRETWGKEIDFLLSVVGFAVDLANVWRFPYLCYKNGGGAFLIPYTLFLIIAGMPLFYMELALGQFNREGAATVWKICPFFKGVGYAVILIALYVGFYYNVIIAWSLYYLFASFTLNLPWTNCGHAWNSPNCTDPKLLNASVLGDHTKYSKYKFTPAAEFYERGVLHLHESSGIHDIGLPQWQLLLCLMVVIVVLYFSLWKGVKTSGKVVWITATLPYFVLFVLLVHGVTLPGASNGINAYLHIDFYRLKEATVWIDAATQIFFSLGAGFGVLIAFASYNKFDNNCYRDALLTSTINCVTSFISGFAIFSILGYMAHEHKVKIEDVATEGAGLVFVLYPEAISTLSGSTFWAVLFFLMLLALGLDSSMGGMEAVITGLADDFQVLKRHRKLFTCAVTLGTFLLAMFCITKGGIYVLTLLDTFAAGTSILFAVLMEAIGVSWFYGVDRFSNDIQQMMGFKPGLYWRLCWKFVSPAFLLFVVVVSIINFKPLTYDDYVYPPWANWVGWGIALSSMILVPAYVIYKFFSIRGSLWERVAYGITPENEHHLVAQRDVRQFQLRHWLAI
Assay type: biochemical
Description: Uptake inhibition assay for the norepinephrine transporter was conducted in rat brain synaptosomes as described elsewhere with minor modifications (Rothman et al., Synapse 39, 32-41 (2001)). Freshly removed whole brain minus cerebellum and caudate was homogenized in 10% ice-cold sucrose with 12 strokes of a hand-held Potter-Elvehjem homogenizer followed by centrifugation at 1000×g for 10 minutes. The supernatants were saved on ice and used immediately. Transporter activity at NET was assessed using 10 nM [^3H]norepinephrine. The assay buffer was Krebs-phosphate buffer containing 154.4 mM NaCl, 2.9 mM KCl, 1.1 mM CaCl2, 0.83 mM MgCl2, 5 mM glucose, 1 mg/mL ascorbic acid, and 50 μM pargyline. […] Uptake inhibition assays were conducted at 37° C. and were initiated by adding 100 μL of tissue to 900 μL assay buffer containing test drug and [^3H]norepinephrine. Test drugs were diluted in assay buffer containing 1 mg/mL bovine serum albumin. Nonspecific uptake was measured by incubating in the presence of 10 μM indatraline. The reactions were stopped after 10 minutes by rapid vacuum filtration with a cell harvester (BRANDEL) over GF/B filters (Whatman) presoaked in wash buffer maintained at 25° C. (10 mM Tris-HCl, pH 7.4/150 mM NaCl). Filters were rinsed with 6 mL wash buffer and retained tritium was quantified by a MicroBeta liquid scintillation counter (PerkinElmer) after overnight extraction in 0.6 mL of liquid scintillation cocktail (Cytoscint, ICN). The data from three experiments were pooled and fit to a dose-response curve equation (using Kaleidagraph), to yield an Emax and EC50 value.

`CN(C)c1ccc(-c2nc(NCC(c3ccccc3)c3ccccc3)c3ccccc3n2)cc1` [Compound 51, 2-(4-(dimethylamino)phenyl)-N-(2,2-diphenylethyl)quinazolin-4-amine] and `CN(C)c1ccc(-c2nc(NCC(c3ccccc3)c3ccccc3)c3ccccc3n2)cn1` [SRI-29779] are within error of each other in Emax: 68 ± 7% for the first, 71 ± 6% for the second.

`CN(C)c1ncc(-c2nc(NCC(c3ccccc3)c3ccccc3)c3ccccc3n2)cn1` [SRI-29153] and `c1ccc(C(CNc2nc(-c3cnc4nccn4c3)nc3ccccc23)c2ccccc2)cc1` [SRI-29991] are within error of each other in Emax: 73 ± 4% for the first, 69 ± 2% for the second.

Work on `c1ccc(C(CNc2nc(-c3ccc4[nH]ccc4c3)nc3ccccc23)c2ccccc2)cc1` [SRI-29155] yielded an Emax of 70 ± 3%.

Same assay, conditions: read-out: NET Uptake IC50; mean ± S.D.; n = 3

`CN(C)c1ccc(-c2nc(NCC(c3ccccc3)c3ccccc3)c3ccccc3n2)cc1` [Compound 51, 2-(4-(dimethylamino)phenyl)-N-(2,2-diphenylethyl)quinazolin-4-amine] and `CN(C)c1ccc(-c2nc(NCC(c3ccccc3)c3ccccc3)c3ccccc3n2)cn1` [SRI-29779] are within error of each other in IC50: 143 ± 61 nM for the first, 147 ± 63 nM for the second.

First: CN(C)c1ncc(-c2nc(NCC(c3ccccc3)c3ccccc3)c3ccccc3n2)cn1 [SRI-29153]
Second: c1ccc(C(CNc2nc(-c3cnc4nccn4c3)nc3ccccc23)c2ccccc2)cc1 [SRI-29991]
The IC50 of the first is 2.9-fold higher: 181 ± 46 nM for the first, 63 ± 9 nM for the second. The second is the more potent here.

`c1ccc(C(CNc2nc(-c3ccc4[nH]ccc4c3)nc3ccccc23)c2ccccc2)cc1` [SRI-29155] gave an IC50 of 290 ± 52 nM.
